Test results from patent US20090321255A1, “Drug-meter: Multiwell membrane-based potentiometric sensor for high throughput tests of drugs” (priority 2008, published 2009).
Where a name gives a salt, the structure may show the parent alone.

Columns and labels:
[1] = Kinetics of transmembrane potential decrease due to drug transport through the membrane; assay type: physicochemical
Method: Kinetics of the process was registered with electrochemical station GPES. 5 mM Potassium Dihydrogen Phosphate solution in water was used as a buffer, filling the tray with the volume ˜30 ml. Known concentration of a drug (usually near 10^−5 M) could be added in the buffer as the reference. Membrane resistance after impregnation was several megaohms and usually decreases after modification of the membrane with drugs. Resistance is much lower when the membrane is broken. In this case the measurements can be conducted in other wells with the same test solution.
Using electrochemical station and computer it is possible to measure potential continuously in time, and for example, to study drug transport through the membrane. In this case it is possible to have different drugs or different types of membranes in different wells.
The steady state potential can decrease in time if one waits at least several minutes due to the slow drug transport through the membrane. After the experiments the membrane could be washed, dried, reimpregnated and after preequilibration used again.
At higher concentrations of the drug after the transmembrane potential reaches its maximum value, it slowly decreases with time due to the transport of the drug (FIG. 6). At pH 8 characteristic time was of the order ˜20 s and increased at more acidic pH to ˜100 s.

[2] = Transmembrane potential calibration of multiwell biomimetic membrane sensor in buffer; assay type: physicochemical; details: pH 8
From the text: Multiwell plates used were commercial Millipore MultiScreen VM 0.05μ plates with nitrocellulose ultrafilters located at the base of each of the 96 wells of a plate. Though the number of the wells in the examples given in the disclosure is 96, as it is in the usual multiwell plates, it is not limited by this number and can be any from 2 and above.
All filters were impregnated by isopropyl myristate or some other lipid-like substances, like long chain fatty acids, their methyl and ethyl-esters, fats, etc. After impregnation the membranes should be translucent.
Each well requires as little as 200 μl of test solution. The small well's volume and the numerous wells (96) make the plates highly suitable as a part of the drug sensor, both for pharmaceutical testing in a buffer as well as for testing in biological fluids.
The tray cover can be is used as a base tray to put the reference buffer solution. Two Ag/AgCl electrodes with the salt bridges were used to measure transmembrane potential with common multimeter. It is possible to use one Ag/AgCl element as a measuring electrode and move it from one well to another. Another option is to have different measuring electrodes in different wells and separately to collect signals from each of them separately.
Kinetics of the process was registered with electrochemical station GPES. […]

albumin = albumin (Homo sapiens, UniProt P02768); assay: Transmembrane potential calibration of the multiwell sensor in albumin solution; assay type: physicochemical
Method: In some cases drugs concentration was measured in albumin solutions with protein concentration 0.022 g/cm^3 in buffer or Fetal Bovine Serum was used with concentration of serum albumin in the range 0.0187 g/cm^3-0.022 g/cm^3.
The base plate was filled with the buffer of reference concentration 5×10^−6 M of drug, and the wells with albumin-drug solution, with constant concentration of albumin, but varying concentration of drug.
In this case the measuring Ag/AgCl electrode was inserted into the wells with albumin solution with decreasing fenfluramine concentrations, then increasing fenfluramine concentrations, i.e. forward and backward using the same wells. The base solution was buffer. The method allows measurements of fenfluramine from 5×10^−5 to 5×10^−2M.
If different concentrations of rimantadine in albumin solution were preliminary prepared, preequilibrated and then added into the wells (method 2), a gradient was 59.9 mV per 10 fold change in drug concentration, which is similar to that with a buffer solution.
Chlorpromazine test solutions were injected into the wells and the reference solution of 5×10^−6 M Chlorpromazine in the buffer was added into the base. […] This effect is similar to the lysis of biological membranes and is related to the surface active properties of chlorpromazine. It was observed also with several other psychotropic substances, including several antidepressants. Those of the drugs which induce lysis at elevated concentrations also have nonspecific liver toxicity.

[3] = Biomimetic membrane lysis (screen for nonspecific liver toxicity); details: elevated drug concentration (chlorpromazine near 0.05 M, after some time)
[4] = bovine, fetal bovine serum, plasma or biological fluid
[5] = pH 7.4 buffer, pH 7.4, aqueous buffer
[6] = method 1: drug added directly into albumin solutions in the wells

Sequence of albumin (P02768 25-609, species assumed): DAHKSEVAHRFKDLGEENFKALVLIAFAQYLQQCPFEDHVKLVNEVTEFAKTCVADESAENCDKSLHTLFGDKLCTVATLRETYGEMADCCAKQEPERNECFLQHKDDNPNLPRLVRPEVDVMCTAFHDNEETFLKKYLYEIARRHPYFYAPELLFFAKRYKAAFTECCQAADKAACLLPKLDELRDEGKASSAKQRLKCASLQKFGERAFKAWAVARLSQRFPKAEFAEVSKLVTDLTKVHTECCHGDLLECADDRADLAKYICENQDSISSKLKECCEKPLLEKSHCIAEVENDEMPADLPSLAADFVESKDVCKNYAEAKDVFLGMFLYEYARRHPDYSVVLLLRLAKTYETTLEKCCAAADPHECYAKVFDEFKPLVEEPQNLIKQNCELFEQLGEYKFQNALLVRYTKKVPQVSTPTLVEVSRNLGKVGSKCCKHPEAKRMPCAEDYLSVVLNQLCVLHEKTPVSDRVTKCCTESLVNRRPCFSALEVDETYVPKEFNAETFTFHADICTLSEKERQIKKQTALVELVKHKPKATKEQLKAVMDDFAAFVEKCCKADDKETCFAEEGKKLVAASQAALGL

| SMILES | characteristic time of potential decrease due to transport of the drug ([1]; more acidic pH) | characteristic time of potential decrease due to transport of the drug ([1]; pH 8, higher drug concentrations (FIG. 6: 10^−3 M)) | time taken to reach the maximum potential [2] | solubility (Solubility; [4]) | solubility (Solubility; [5]) | potentials in buffer versus albumin solutions (drug binding property of albumin) (albumin; pH2, reference 5×10^−6 M drug in buffer) | slope of calibration curve (albumin; [6]) | time for the potential to reach the steady state (albumin; [6]) | gradient of calibration curve (albumin; method 2: drug in albumin solution prepared, preequilibrated, then added into wells) | membrane lysis / loss of transmembrane potential [3] |
| --- | --- | --- | --- | --- | --- | --- | --- | --- | --- | --- |
| CCNC(C)Cc1cccc(C(F)(F)F)c1.Cl (racemic) [Fenfluramine Hydrochloride, (+/−)-N-ethyl-α-methyl-m-(trifluoromethyl) phenethylamine HCl] | ~100 s | ~20 s | less then a minute | ~10 mM | ~50 mM |  |  |  |  |  |
| CN(C)CCCN1c2ccccc2Sc2ccc(Cl)cc21 [Chlorpromazine Hydrochloride, 2-chloro-10-[3-dimethylaminopropyl] phenothiazine] |  |  |  |  |  | higher with buffer than with albumin solutions |  |  |  |  |
| CC(N)C12CC3CC(CC(C3)C1)C2.Cl (stereo not drawn) [Rimantadine Hydrochloride, 1-(1-Adamantyl)ethylamine hydrochloride] |  |  |  | ~10 mM | ~50 mM |  | 19.3 mV per 10 fold change in Rimantadine concentration | at least an hr | 59.9 mV per 10 fold change in drug concentration | did not result in the membrane lysis |
